# Measurements from PubChem BioAssay (NCI).
#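 Briefly, cells in 96-well plates were exposed to five compound concentrations for 48 h, and endpoints were estimated by linear interpolation. The concentration for full growth arrest is given as TGI.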
# Assays:
# Assay in all cases: NCI-60 cell line screen, 48 h
# [1] = tested on: OVCAR-8 ovarian
# [2] = tested on: UACC-62 melanoma
# [3] = tested on: CAKI-1 renal
# [4] = tested on: NCI-H460 lung
# [5] = tested on: HCT-116 colon
# [6] = tested on: NCI/ADR-RES ovarian
# [7] = tested on: SK-OV-3 ovarian
# [8] = tested on: UO-31 renal
# [9] = tested on: 786-0 renal
# [10] = tested on: DU-145 prostate
# [11] = tested on: HOP-92 NSCLC
# [12] = tested on: SK-MEL-28 melanoma
# [13] = tested on: RPMI-8226 leukemia
# [14] = tested on: HOP-62 NSCLC
# [15] = tested on: UACC-257 melanoma
# [16] = tested on: HT29 colon
# [17] = tested on: NCI-H23 lung
# [18] = tested on: M14 melanoma
# [19] = tested on: OVCAR-3 ovarian
# [20] = tested on: MALME-3M melanoma
# [21] = tested on: K-562 leukemia
# [22] = tested on: RXF 393 renal
# [23] = tested on: PC-3 prostate
# [24] = tested on: KM12 colon
# [25] = tested on: SN12C renal
# [26] = tested on: HS 578T breast
# [27] = tested on: U251 CNS
# [28] = tested on: A549 NSCLC
# [29] = tested on: ACHN renal
# [30] = tested on: MDA-N
# [31] = tested on: SF-539 CNS
# [32] = tested on: OVCAR-5 ovarian
# [33] = tested on: SK-MEL-5 melanoma
# [34] = tested on: SNB-75 CNS
# [35] = tested on: TK-10 renal
# [36] = tested on: CCRF-CEM leukemia
# [37] = tested on: MDA-MB-435
# [38] = tested on: SK-MEL-2 melanoma
# [39] = tested on: HCC-2998 colon
# [40] = tested on: SF-268 CNS
# [41] = tested on: IGROV1 ovarian
# [42] = tested on: HL-60(TB) leukemia
# [43] = tested on: NCI-H522 lung
# [44] = tested on: COLO 205 colon
# [45] = tested on: HCT-15 colon
# [46] = tested on: SW-620 colon
# [47] = tested on: NCI-H226 lung
# [48] = tested on: BT-549 breast
# [49] = tested on: EKVX NSCLC
# [50] = tested on: MDA-MB-231 breast
# [51] = tested on: SF-295 CNS
# [52] = tested on: T-47D breast
# [53] = tested on: SR leukemia
# [54] = tested on: MOLT-4 leukemia
# [55] = tested on: MCF7 breast
# [56] = tested on: SNB-19 CNS
# [57] = tested on: LOX IMVI melanoma
# [58] = tested on: OVCAR-4 ovarian
# [59] = tested on: A498 renal
structure (smiles),measurement,setting,value
O=C(O)c1ccccc1CC1Cc2ccccc2C1,TGI,[1],> 100 µM
same,TGI,[2],> 100 µM
same,TGI,[3],> 100 µM
same,TGI,[4],> 100 µM
same,TGI,[5],> 100 µM
same,TGI,[6],> 100 µM
same,TGI,[7],> 100 µM
same,TGI,[8],> 100 µM
same,TGI,[9],> 100 µM
same,TGI,[10],> 100 µM
same,TGI,[11],> 100 µM
same,TGI,[12],> 100 µM
same,TGI,[13],> 100 µM
same,TGI,[14],> 100 µM
same,TGI,[15],> 100 µM
same,TGI,[16],> 100 µM
same,TGI,[17],> 100 µM
same,TGI,[18],> 100 µM
same,TGI,[19],> 100 µM
same,TGI,[20],> 100 µM
same,TGI,[21],> 100 µM
same,TGI,[22],> 100 µM
same,TGI,[23],> 100 µM
same,TGI,[24],> 100 µM
same,TGI,[25],> 100 µM
same,TGI,[26],> 100 µM
same,TGI,[27],> 100 µM
same,TGI,[28],> 100 µM
same,TGI,[29],> 100 µM
same,TGI,[30],> 100 µM
same,TGI,[31],> 100 µM
same,TGI,[32],> 100 µM
same,TGI,[33],> 100 µM
same,TGI,[34],> 100 µM
same,TGI,[35],> 100 µM
same,TGI,[36],> 100 µM
same,TGI,[37],> 100 µM
same,TGI,[38],> 100 µM
same,TGI,[39],> 100 µM
same,TGI,[40],> 100 µM
same,TGI,[41],> 100 µM
same,TGI,[42],> 100 µM
same,TGI,[43],> 100 µM
same,TGI,[44],> 100 µM
same,TGI,[45],> 100 µM
same,TGI,[46],> 100 µM
same,TGI,[47],> 100 µM
same,TGI,[48],> 100 µM
same,TGI,[49],> 100 µM
same,TGI,[50],> 100 µM
same,TGI,[51],> 100 µM
same,TGI,[52],> 100 µM
same,TGI,[53],> 100 µM
same,TGI,[54],> 100 µM
same,TGI,[55],> 100 µM
same,TGI,[56],> 100 µM
same,TGI,[57],> 100 µM
same,TGI,[58],> 100 µM
O=C1c2ccc(O)cc2OC(c2cc(O)c(O)c(O)c2)C1O (stereo not given),TGI,[1],38.4 µM
same,TGI,[2],> 100 µM
same,TGI,[3],> 100 µM
same,TGI,[4],39.5 µM
same,TGI,[5],41 µM
same,TGI,[59],73.5 µM
same,TGI,[6],52.9 µM
same,TGI,[7],> 100 µM
same,TGI,[8],> 100 µM
same,TGI,[9],45.4 µM
same,TGI,[10],> 100 µM
same,TGI,[11],> 100 µM
same,TGI,[12],> 100 µM
same,TGI,[13],48.6 µM
same,TGI,[14],> 100 µM
same,TGI,[15],> 100 µM
same,TGI,[16],43.9 µM
same,TGI,[17],> 100 µM
same,TGI,[18],> 100 µM
same,TGI,[19],> 100 µM
same,TGI,[20],> 100 µM
same,TGI,[22],> 100 µM
same,TGI,[23],> 100 µM
same,TGI,[24],67.1 µM
same,TGI,[25],36.6 µM
same,TGI,[26],> 100 µM
same,TGI,[27],48.7 µM
same,TGI,[28],> 100 µM
same,TGI,[29],48.9 µM
same,TGI,[30],34 µM
same,TGI,[31],52.7 µM
same,TGI,[32],> 100 µM
same,TGI,[33],> 100 µM
same,TGI,[35],69.3 µM
same,TGI,[36],55.9 µM
same,TGI,[37],43.2 µM
same,TGI,[38],> 100 µM
same,TGI,[39],> 100 µM
same,TGI,[40],> 100 µM
same,TGI,[41],39.1 µM
same,TGI,[42],48.4 µM
same,TGI,[43],58.7 µM
same,TGI,[44],83.3 µM
same,TGI,[45],> 100 µM
same,TGI,[46],70.3 µM
same,TGI,[47],> 100 µM
same,TGI,[48],48 µM
same,TGI,[49],39.3 µM
same,TGI,[50],39.7 µM
same,TGI,[51],39.9 µM
same,TGI,[52],85.9 µM
same,TGI,[53],56.5 µM
same,TGI,[54],51.7 µM
same,TGI,[55],51.9 µM
same,TGI,[56],> 100 µM
same,TGI,[57],38.5 µM
same,TGI,[58],> 100 µM
CN(C)c1ccc(/C=C/c2ccc3ccccc3[n+]2C)cc1,TGI,[1],4.3 µM
same,TGI,[2],41 µM
same,TGI,[4],12 µM
same,TGI,[5],10.9 µM
same,TGI,[59],60.1 µM
same,TGI,[6],> 100 µM
same,TGI,[7],60.6 µM
same,TGI,[8],9.62 µM
same,TGI,[9],> 100 µM
same,TGI,[10],25.5 µM
same,TGI,[11],5.19 µM
same,TGI,[12],12.7 µM
same,TGI,[14],25.6 µM
same,TGI,[16],8.46 µM
same,TGI,[17],9.26 µM
same,TGI,[18],17.1 µM
same,TGI,[19],15.5 µM
same,TGI,[20],11.2 µM
same,TGI,[21],> 100 µM
same,TGI,[22],9.84 µM
same,TGI,[23],9.84 µM
same,TGI,[24],13.6 µM
same,TGI,[25],15.8 µM
same,TGI,[26],> 100 µM
same,TGI,[27],20.7 µM
same,TGI,[28],22.5 µM
same,TGI,[29],55.3 µM
same,TGI,[30],13 µM
same,TGI,[32],26.2 µM
same,TGI,[33],13.5 µM
same,TGI,[35],17.7 µM
same,TGI,[36],24.6 µM
same,TGI,[37],13.3 µM
same,TGI,[38],4.02 µM
same,TGI,[39],16.3 µM
same,TGI,[41],> 100 µM
same,TGI,[42],3.48 µM
same,TGI,[45],30.4 µM
same,TGI,[46],12.3 µM
same,TGI,[47],13.3 µM
same,TGI,[48],10.5 µM
same,TGI,[49],5.85 µM
same,TGI,[50],12.6 µM
same,TGI,[51],10 µM
same,TGI,[52],6.26 µM
same,TGI,[53],4.34 µM
same,TGI,[54],4.53 µM
same,TGI,[55],14.4 µM
same,TGI,[56],> 100 µM
Cc1ccc(/C=C2\N=C(N3CCOCC3)NC2=O)cc1,TGI,[1],> 100 µM
same,TGI,[2],> 100 µM
same,TGI,[3],> 100 µM
same,TGI,[5],> 100 µM
same,TGI,[6],> 100 µM
same,TGI,[7],> 100 µM
same,TGI,[8],> 100 µM
same,TGI,[9],> 100 µM
same,TGI,[10],> 100 µM
same,TGI,[11],> 100 µM
same,TGI,[12],> 100 µM
same,TGI,[13],> 100 µM
same,TGI,[14],> 100 µM
same,TGI,[15],> 100 µM
same,TGI,[16],> 100 µM
same,TGI,[17],> 100 µM
same,TGI,[18],> 100 µM
same,TGI,[19],> 100 µM
same,TGI,[20],> 100 µM
same,TGI,[22],> 100 µM
same,TGI,[23],> 100 µM
same,TGI,[24],> 100 µM
same,TGI,[25],> 100 µM
same,TGI,[26],> 100 µM
same,TGI,[27],> 100 µM
same,TGI,[28],> 100 µM
same,TGI,[29],> 100 µM
same,TGI,[30],> 100 µM
same,TGI,[31],> 100 µM
same,TGI,[32],> 100 µM
same,TGI,[34],> 100 µM
same,TGI,[35],> 100 µM
same,TGI,[36],> 100 µM
same,TGI,[37],> 100 µM
same,TGI,[38],> 100 µM
same,TGI,[39],> 100 µM
same,TGI,[40],> 100 µM
same,TGI,[41],> 100 µM
same,TGI,[42],> 100 µM
same,TGI,[43],> 100 µM
same,TGI,[44],> 100 µM
same,TGI,[45],> 100 µM
same,TGI,[46],> 100 µM
same,TGI,[47],> 100 µM
same,TGI,[48],> 100 µM
same,TGI,[49],> 100 µM
same,TGI,[50],> 100 µM
same,TGI,[51],> 100 µM
same,TGI,[52],> 100 µM
same,TGI,[53],> 100 µM
same,TGI,[54],> 100 µM
same,TGI,[55],> 100 µM
same,TGI,[56],> 100 µM
same,TGI,[57],> 100 µM
same,TGI,[58],> 100 µM
C=CC(=O)NC(O)(C(=O)OCC)C(F)(F)F (stereo not given),TGI,[1],> 100 µM
same,TGI,[2],> 100 µM
same,TGI,[3],> 100 µM
same,TGI,[5],> 100 µM
same,TGI,[6],> 100 µM
same,TGI,[7],> 100 µM
same,TGI,[8],> 100 µM
same,TGI,[10],> 100 µM
same,TGI,[11],> 100 µM
same,TGI,[12],> 100 µM
same,TGI,[13],> 100 µM
same,TGI,[14],> 100 µM
same,TGI,[15],> 100 µM
same,TGI,[16],> 100 µM
same,TGI,[17],> 100 µM
same,TGI,[18],> 100 µM
same,TGI,[19],> 100 µM
same,TGI,[20],> 100 µM
same,TGI,[21],> 100 µM
same,TGI,[22],> 100 µM
same,TGI,[23],> 100 µM
same,TGI,[24],> 100 µM
same,TGI,[25],> 100 µM
same,TGI,[26],> 100 µM
same,TGI,[27],> 100 µM
same,TGI,[28],> 100 µM
same,TGI,[29],> 100 µM
same,TGI,[30],> 100 µM
same,TGI,[31],> 100 µM
same,TGI,[32],> 100 µM
same,TGI,[33],> 100 µM
same,TGI,[34],> 100 µM
same,TGI,[35],> 100 µM
same,TGI,[36],> 100 µM
same,TGI,[37],> 100 µM
same,TGI,[38],> 100 µM
same,TGI,[39],> 100 µM
same,TGI,[40],> 100 µM
same,TGI,[41],> 100 µM
same,TGI,[42],> 100 µM
same,TGI,[43],> 100 µM
same,TGI,[44],> 100 µM
same,TGI,[45],> 100 µM
same,TGI,[46],> 100 µM
same,TGI,[47],> 100 µM
same,TGI,[48],> 100 µM
same,TGI,[49],> 100 µM
same,TGI,[50],> 100 µM
same,TGI,[51],> 100 µM
same,TGI,[52],> 100 µM
same,TGI,[53],> 100 µM
same,TGI,[54],> 100 µM
same,TGI,[55],> 100 µM
same,TGI,[56],> 100 µM
same,TGI,[57],> 100 µM
same,TGI,[58],> 100 µM
